Source: the supplement of paper PMC13380429

Key:
Settings in all cases: 72 h
[1] = tested on: HepG2; assay: relative viability EC50 (midpoint between 100% and the lowest measured viability); higher = less toxic
[2] = tested on: Caco-2; assay: as above
[3] = tested on: Vero E6; assay: as above
[4] = tested on: U2OS; assay: as above
[5] = tested on: Calu-3; assay: as above
[6] = tested on: HepG2; assay: drug sensitivity score (DSS) for viability; higher = more toxic; extreme values may be limits of the assay
[7] = tested on: Caco-2; assay: as above
[8] = tested on: Vero E6; assay: as above
[9] = tested on: U2OS; assay: as above
[10] = tested on: Calu-3; assay: as above
[11] = tested on: HepG2; assay: cell viability relative to DMSO; higher = less toxic
[12] = tested on: Caco-2; assay: as above
[13] = tested on: Vero E6; assay: as above
[14] = tested on: U2OS; assay: as above
[15] = tested on: Calu-3; assay: as above

Cc1cc(C)c(CNC(=O)c2cc(-c3ccc(N4CCN(C)CC4)nc3)cc3c2c(C)cn3C(C)C)c(=O)[nH]1 [GSK503]
relative viability EC50 [1]: > 10 µM | relative viability EC50 [2]: > 10 µM | relative viability EC50 [3]: > 10 µM | relative viability EC50 [4]: > 10 µM | relative viability EC50 [5]: > 10 µM | drug sensitivity score [6]: 0.4 | drug sensitivity score [7]: 0 | drug sensitivity score [8]: 0 | drug sensitivity score [9]: 0 | drug sensitivity score [10]: 0 | cell viability ([11]; 1 nM): 92.6% | cell viability ([11]; 10 nM): 112% | cell viability ([11]; 100 nM): 99.7% | cell viability ([11]; 1000 nM): 94.4% | cell viability ([11]; 10000 nM): 87.2% | cell viability ([12]; 1 nM): 98.8% | cell viability ([12]; 10 nM): 104% | cell viability ([12]; 100 nM): 93.7% | cell viability ([12]; 1000 nM): 105% | cell viability ([12]; 10000 nM): 102% | cell viability ([13]; 1 nM): 101% | cell viability ([13]; 10 nM): 104% | cell viability ([13]; 100 nM): 105% | cell viability ([13]; 1000 nM): 98.6% | cell viability ([13]; 10000 nM): 102% | cell viability ([14]; 1 nM): 104% | cell viability ([14]; 10 nM): 98.6% | cell viability ([14]; 100 nM): 104% | cell viability ([14]; 1000 nM): 101% | cell viability ([14]; 10000 nM): 102% | cell viability ([15]; 1 nM): 88.3% | cell viability ([15]; 10 nM): 85.3% | cell viability ([15]; 100 nM): 92.9% | cell viability ([15]; 1000 nM): 109% | cell viability ([15]; 10000 nM): 104%

NC(=O)c1cccc(-c2cccc(OC(=O)NC3CCCCC3)c2)c1 [URB597]
relative viability EC50 [1]: > 10 µM | relative viability EC50 [2]: > 10 µM | relative viability EC50 [3]: > 10 µM | relative viability EC50 [4]: > 10 µM | relative viability EC50 [5]: > 10 µM | drug sensitivity score [6]: 0 | drug sensitivity score [7]: 0 | drug sensitivity score [8]: 0 | drug sensitivity score [9]: 0 | drug sensitivity score [10]: 0 | cell viability ([11]; 1 nM): 104% | cell viability ([11]; 10 nM): 105% | cell viability ([11]; 100 nM): 104% | cell viability ([11]; 1000 nM): 96.9% | cell viability ([11]; 10000 nM): 92.3% | cell viability ([12]; 1 nM): 93.9% | cell viability ([12]; 10 nM): 98.7% | cell viability ([12]; 100 nM): 93.9% | cell viability ([12]; 1000 nM): 103% | cell viability ([12]; 10000 nM): 89.1% | cell viability ([13]; 1 nM): 107% | cell viability ([13]; 10 nM): 98.5% | cell viability ([13]; 100 nM): 104% | cell viability ([13]; 1000 nM): 96.7% | cell viability ([13]; 10000 nM): 103% | cell viability ([14]; 1 nM): 94% | cell viability ([14]; 10 nM): 102% | cell viability ([14]; 100 nM): 98.5% | cell viability ([14]; 1000 nM): 105% | cell viability ([14]; 10000 nM): 98.8% | cell viability ([15]; 1 nM): 86.4% | cell viability ([15]; 10 nM): 94.6% | cell viability ([15]; 100 nM): 92.7% | cell viability ([15]; 1000 nM): 88.4% | cell viability ([15]; 10000 nM): 99.1%

CC[N+]1(C)CCCC(OC(=O)C(O)(c2ccccc2)c2ccccc2)C1 (stereo not given) [pipenzolate]
relative viability EC50 [1]: > 10 µM | relative viability EC50 [2]: > 10 µM | relative viability EC50 [3]: > 10 µM | relative viability EC50 [4]: > 10 µM | relative viability EC50 [5]: > 10 µM | drug sensitivity score [6]: 0 | drug sensitivity score [7]: 0 | drug sensitivity score [8]: 0 | drug sensitivity score [9]: 0 | drug sensitivity score [10]: 0 | cell viability ([11]; 1 nM): 89.3% | cell viability ([11]; 10 nM): 102% | cell viability ([11]; 100 nM): 97.7% | cell viability ([11]; 1000 nM): 99.8% | cell viability ([11]; 10000 nM): 94.3% | cell viability ([12]; 1 nM): 102% | cell viability ([12]; 10 nM): 100% | cell viability ([12]; 100 nM): 103% | cell viability ([12]; 1000 nM): 95.2% | cell viability ([12]; 10000 nM): 95.7% | cell viability ([13]; 1 nM): 105% | cell viability ([13]; 10 nM): 101% | cell viability ([13]; 100 nM): 105% | cell viability ([13]; 1000 nM): 103% | cell viability ([13]; 10000 nM): 96.7% | cell viability ([14]; 1 nM): 100% | cell viability ([14]; 10 nM): 95% | cell viability ([14]; 100 nM): 95.4% | cell viability ([14]; 1000 nM): 93.3% | cell viability ([14]; 10000 nM): 97.4% | cell viability ([15]; 1 nM): 96.3% | cell viability ([15]; 10 nM): 95.5% | cell viability ([15]; 100 nM): 93.3% | cell viability ([15]; 1000 nM): 94.6% | cell viability ([15]; 10000 nM): 91.8%

Nc1ncnc2c1ncn2[C@@H]1O[C@H](C[C@@H](N)CC[C@H](N)C(=O)O)[C@@H](O)[C@H]1O [sinefungin]
relative viability EC50 [1]: > 10 µM | relative viability EC50 [2]: > 10 µM | relative viability EC50 [3]: > 10 µM | relative viability EC50 [4]: > 10 µM | relative viability EC50 [5]: > 10 µM | drug sensitivity score [6]: 0 | drug sensitivity score [7]: 0 | drug sensitivity score [8]: 0 | drug sensitivity score [9]: 0 | drug sensitivity score [10]: 0 | cell viability ([11]; 1 nM): 115% | cell viability ([11]; 10 nM): 96.2% | cell viability ([11]; 100 nM): 113% | cell viability ([11]; 1000 nM): 89.9% | cell viability ([11]; 10000 nM): 97.1% | cell viability ([12]; 1 nM): 86.7% | cell viability ([12]; 10 nM): 95.5% | cell viability ([12]; 100 nM): 91.4% | cell viability ([12]; 1000 nM): 108% | cell viability ([12]; 10000 nM): 106% | cell viability ([13]; 1 nM): 112% | cell viability ([13]; 10 nM): 94.3% | cell viability ([13]; 100 nM): 102% | cell viability ([13]; 1000 nM): 104% | cell viability ([13]; 10000 nM): 99.5% | cell viability ([14]; 1 nM): 96.6% | cell viability ([14]; 10 nM): 98.1% | cell viability ([14]; 100 nM): 97.7% | cell viability ([14]; 1000 nM): 101% | cell viability ([14]; 10000 nM): 96.2% | cell viability ([15]; 1 nM): 104% | cell viability ([15]; 10 nM): 104% | cell viability ([15]; 100 nM): 100% | cell viability ([15]; 1000 nM): 94.8% | cell viability ([15]; 10000 nM): 93.5%

C[C@H](N)Cn1ccc2cc(F)c(Cl)cc21 [Ro-60-0175]
relative viability EC50 [1]: > 10 µM | relative viability EC50 [2]: > 10 µM | relative viability EC50 [3]: > 10 µM | relative viability EC50 [4]: > 10 µM | relative viability EC50 [5]: > 10 µM | drug sensitivity score [6]: 0 | drug sensitivity score [7]: 0.6 | drug sensitivity score [8]: 0 | drug sensitivity score [9]: 0 | drug sensitivity score [10]: 0 | cell viability ([11]; 1 nM): 99.5% | cell viability ([11]; 10 nM): 101% | cell viability ([11]; 100 nM): 106% | cell viability ([11]; 1000 nM): 99.8% | cell viability ([11]; 10000 nM): 103% | cell viability ([12]; 1 nM): 94.9% | cell viability ([12]; 10 nM): 90.9% | cell viability ([12]; 100 nM): 101% | cell viability ([12]; 1000 nM): 95.8% | cell viability ([12]; 10000 nM): 85.2% | cell viability ([13]; 1 nM): 104% | cell viability ([13]; 10 nM): 98.4% | cell viability ([13]; 100 nM): 100% | cell viability ([13]; 1000 nM): 95.3% | cell viability ([13]; 10000 nM): 96% | cell viability ([14]; 1 nM): 96.5% | cell viability ([14]; 10 nM): 106% | cell viability ([14]; 100 nM): 96.9% | cell viability ([14]; 1000 nM): 104% | cell viability ([14]; 10000 nM): 93.3% | cell viability ([15]; 1 nM): 93.7% | cell viability ([15]; 10 nM): 92.3% | cell viability ([15]; 100 nM): 87.4% | cell viability ([15]; 1000 nM): 95.6% | cell viability ([15]; 10000 nM): 87.2%

CN1CCC(=C2c3ccccc3Sc3ccccc32)CC1 [pimethixene]
relative viability EC50 [1]: > 10 µM | relative viability EC50 [2]: > 10 µM | relative viability EC50 [3]: > 10 µM | relative viability EC50 [4]: > 10 µM | relative viability EC50 [5]: > 10 µM | drug sensitivity score [6]: 1.2 | drug sensitivity score [7]: 0 | drug sensitivity score [8]: 0 | drug sensitivity score [9]: 0 | drug sensitivity score [10]: 0 | cell viability ([11]; 1 nM): 108% | cell viability ([11]; 10 nM): 98.9% | cell viability ([11]; 100 nM): 121% | cell viability ([11]; 1000 nM): 84.7% | cell viability ([11]; 10000 nM): 92.1% | cell viability ([12]; 1 nM): 100% | cell viability ([12]; 10 nM): 89.7% | cell viability ([12]; 100 nM): 96.9% | cell viability ([12]; 1000 nM): 101% | cell viability ([12]; 10000 nM): 102% | cell viability ([13]; 1 nM): 103% | cell viability ([13]; 10 nM): 101% | cell viability ([13]; 100 nM): 106% | cell viability ([13]; 1000 nM): 105% | cell viability ([13]; 10000 nM): 98.4% | cell viability ([14]; 1 nM): 103% | cell viability ([14]; 10 nM): 97.8% | cell viability ([14]; 100 nM): 102% | cell viability ([14]; 1000 nM): 99% | cell viability ([14]; 10000 nM): 95.5% | cell viability ([15]; 1 nM): 103% | cell viability ([15]; 10 nM): 105% | cell viability ([15]; 100 nM): 100% | cell viability ([15]; 1000 nM): 100% | cell viability ([15]; 10000 nM): 101%

O=C(/C=C/c1cccc(F)c1)NC1CC1 [cinflumide]
relative viability EC50 [1]: > 10 µM | relative viability EC50 [2]: > 10 µM | relative viability EC50 [3]: > 10 µM | relative viability EC50 [4]: > 10 µM | relative viability EC50 [5]: > 10 µM | drug sensitivity score [6]: 0.5 | drug sensitivity score [7]: 0 | drug sensitivity score [8]: 0 | drug sensitivity score [9]: 0 | drug sensitivity score [10]: 0 | cell viability ([11]; 1 nM): 92.8% | cell viability ([11]; 10 nM): 101% | cell viability ([11]; 100 nM): 101% | cell viability ([11]; 1000 nM): 97.7% | cell viability ([11]; 10000 nM): 84.8% | cell viability ([12]; 1 nM): 104% | cell viability ([12]; 10 nM): 99.9% | cell viability ([12]; 100 nM): 95.5% | cell viability ([12]; 1000 nM): 99.3% | cell viability ([12]; 10000 nM): 98.1% | cell viability ([13]; 1 nM): 101% | cell viability ([13]; 10 nM): 98.7% | cell viability ([13]; 100 nM): 106% | cell viability ([13]; 1000 nM): 102% | cell viability ([13]; 10000 nM): 91.8% | cell viability ([14]; 1 nM): 98.9% | cell viability ([14]; 10 nM): 101% | cell viability ([14]; 100 nM): 91.5% | cell viability ([14]; 1000 nM): 98% | cell viability ([14]; 10000 nM): 99.8% | cell viability ([15]; 1 nM): 96.8% | cell viability ([15]; 10 nM): 91.7% | cell viability ([15]; 100 nM): 102% | cell viability ([15]; 1000 nM): 99.9% | cell viability ([15]; 10000 nM): 96.4%
